Holding throughout (assay): inhibition of tumour cell growth, NCI panel, 48 h
The subject of assay [1] is HCT-15.
For assay [2], the system named is K562.
Assay [3] concerns OVCAR-5.
The test system of assay [4] is SF-295.
For assay [5], the system named is U-251.
The subject of assay [6] is RPMI-8226.
Assay [7] deals with UACC-62.
Assay [8] concerns MOLT-4.
The test system of assay [9] is ACHN.
The test system of assay [10] is SK-OV-3.
In assay [11] the test system is SN12C.
Assay [12] has as its system CAKI-1.
Assay [13] deals with NCI-H460.
Assay [14] deals with NCI-H226.
Assay [15] concerns LOX IMVI.
Assay [16] deals with SR.

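Each compound was tested at five concentrations against cells in 96-well plates for 48 hours. Abbreviation: GI50, concentration required for 50% inhibition of growth.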 Activity calls are given as the source filed them. Rule as the data show it: active = GI50 up to about 1.1 µM and inactive = higher.

With `CNCCCCN(C)/[N+]([O-])=N\O`, the GI50 in assay [1] is greater than 100 µM; in assay [2], > 100 µM (inactive); in assay [3], > 100 µM (inactive); in assay [4], > 100 µM (inactive); in [5], > 100 µM (inactive); in [6] it was > 100 µM (inactive). Moreover, the GI50 in [7], in assay [8], in [9], in assay [10], in [11] and in assay [12] was > 100 µM (inactive) throughout. Further, the GI50 in assay [13] and in assay [14] was > 100 µM (inactive) throughout.

Regarding `COc1nc(NC2OC(COC(C)=O)C(OC(C)=O)C(OC(C)=O)C2OC(C)=O)c(/N=C(\C)C(C)=O)c(=O)n1C` (centres undefined), the GI50 is greater than 100 µM in [1]; > 100 µM (inactive) in assay [2]; > 100 µM (inactive) in assay [3]; > 100 µM (inactive) in [4]; > 100 µM (inactive) in [5]; > 100 µM (inactive) in assay [15]. Besides, the GI50 in assay [6], in [7], in assay [8], in assay [9], in [10] and in [11] was > 100 µM (inactive) each time. Besides, the GI50 in assay [12], in assay [13] and in assay [14] was > 100 µM (inactive) throughout.

With `O=C1CCC2(c3ccc(Cl)cc3)Nc3ncccc3N12` (centres undefined), the GI50 in assay [1] was greater than 100 µM; in [2] it was > 100 µM (inactive); in assay [3], > 100 µM (inactive); in assay [4], > 100 µM (inactive); in assay [5] it was > 100 µM (inactive); in [15] it was > 100 µM (inactive). Also, the GI50 in assay [6], in [7], in [8], in assay [9], in [10] and in [11] was > 100 µM (inactive) throughout. The GI50 in [12], in assay [13] and in assay [14] was > 100 µM (inactive) throughout.

For the compound `CSc1c(C)c(C)nn1-c1ccccc1`, the GI50 was greater than 100 µM in [1]; > 100 µM (inactive) in [2]; > 100 µM (inactive) in [3]; > 100 µM (inactive) in assay [4]; > 100 µM (inactive) in assay [5]; > 100 µM (inactive) in [15]. The GI50 in assay [6], in assay [7], in [8], in assay [9], in assay [10] and in assay [11] was > 100 µM (inactive) each time. Also, the GI50 in assay [12] and in [13] was > 100 µM (inactive) in each case.

Regarding `CC(C)(C)OC1=C(OC(C)(C)C)C(O)(c2ccccc2)C1=O` (centres undefined), the GI50 is greater than 100 µM in assay [1]; > 100 µM (inactive) in [2]; > 100 µM (inactive) in assay [3]; > 100 µM (inactive) in [4]; > 100 µM (inactive) in assay [5]; > 100 µM (inactive) in assay [15]. For the same compound, the GI50 in [6], in [7], in assay [8], in assay [9], in assay [10] and in [11] was > 100 µM (inactive) in each case. In addition, in assay [13], the GI50 was > 100 µM (inactive).

For `COC(=O)C1=C(C(=O)OC)C2(C3C(SC)=CC(C)(C)CC3S1)N(Cc1ccccc1)CCN2Cc1ccccc1` (centres undefined), the GI50 in assay [1] was greater than 100 µM; in [2], 62.7 µM (inactive); in assay [3] it was > 100 µM (inactive); in [4], > 100 µM (inactive); in [5] it was > 100 µM (inactive); in assay [15], > 100 µM (inactive). Besides, the GI50 in assay [6] was 18.3 µM (inactive); in [7], > 100 µM (inactive); in [8] it was > 100 µM (inactive); in [9], 48.2 µM (inactive); in assay [10] it was > 100 µM (inactive); in assay [11] it was > 100 µM (inactive). Besides, the GI50 in [12], in assay [13] and in assay [14] was > 100 µM (inactive) in each case.

For `C[N+]1(C)CCCC1C(=O)[O-]` (centres undefined), the GI50 is greater than 100 µM in assay [1]; > 100 µM (inactive) in assay [2]; > 100 µM (inactive) in [4]; > 100 µM (inactive) in assay [5]; > 100 µM (inactive) in assay [15]; > 100 µM (inactive) in [6]. Also, the GI50 in assay [7], in [8], in [9], in assay [10], in assay [16] and in assay [11] was > 100 µM (inactive) in each case. Also, the GI50 in assay [13] and in assay [14] was > 100 µM (inactive) in each case.

As to `CCN(CC)CCCC(C)Nc1c(Sc2cnc3cc(Cl)ccc3c2NC(C)CCCN(CC)CC)cnc2cc(Cl)ccc12` (centres undefined), the GI50 was 1.72 µM in assay [1]; 1.55 µM (inactive) in assay [2]; 1.73 µM (inactive) in [3]; 1.63 µM (inactive) in assay [5]; 1.78 µM (inactive) in [15]; 1.91 µM (inactive) in assay [6]. Also, the GI50 is 1.74 µM (inactive) in assay [7]; 2.37 µM (inactive) in assay [8]; 1.98 µM (inactive) in [9]; 1.66 µM (inactive) in [10]; 1.88 µM (inactive) in [11]; 1.53 µM (inactive) in [12]. The figures for the GI50 in [13] and in assay [14] were 1.74 µM (inactive) and 1.76 µM (inactive), respectively.

For `CC(=O)c1c2c(cc3c1CC1(C3)Cc3cc4c(c(C(C)=O)c3C1)CCC4)CCC2`, the GI50 in assay [2] was 38 µM (inactive); in assay [3], > 100 µM (inactive); in assay [4] it was > 100 µM (inactive); in assay [5], > 100 µM (inactive); in [15], > 100 µM (inactive); in assay [7], > 100 µM (inactive). In addition, the GI50 was 73.1 µM (inactive) in assay [8]; > 100 µM (inactive) in assay [9]; > 100 µM (inactive) in assay [16]; > 100 µM (inactive) in assay [11]; > 100 µM (inactive) in [12]; > 100 µM (inactive) in assay [13].

On to `CC1=CC=NN2C(=O)[C@H](C)C2C1` (some centres undefined), for which the GI50 in [1] is greater than 100 µM; in assay [2], > 100 µM (inactive); in [3], > 100 µM (inactive); in assay [4], > 100 µM (inactive); in assay [5] it was > 100 µM (inactive); in assay [15] it was > 100 µM (inactive). Moreover, the GI50 in assay [6], in assay [7], in [8], in [9], in [10] and in [16] was > 100 µM (inactive) throughout. For the same compound, the GI50 in assay [11], in assay [13] and in [14] was > 100 µM (inactive) each time.

Consider `Cc1ccc(S(=O)(=O)C(CC(=O)N2CCCC2)C(=O)c2ccccc2)cc1` (centres undefined), for which the GI50 in assay [2] is 24.9 µM (inactive); in [3], > 100 µM (inactive); in assay [4], > 100 µM (inactive); in assay [5] it was > 100 µM (inactive); in assay [15] it was 44.5 µM (inactive); in [7], > 100 µM (inactive). Moreover, the GI50 in [8] is 25.6 µM (inactive); in assay [9], > 100 µM (inactive); in [16], 25.5 µM (inactive); in assay [11], > 100 µM (inactive); in assay [12], 46.9 µM (inactive); in [13], > 100 µM (inactive).

In the case of `CC(=O)OC1(C#N)CC2OC1C1C2N1C(=O)OC(C)(C)C` (centres undefined), the GI50 in [1] was greater than 100 µM; in assay [2] it was > 100 µM (inactive); in assay [3], > 100 µM (inactive); in assay [5] it was > 100 µM (inactive); in [15], > 100 µM (inactive); in assay [6] it was > 100 µM (inactive). Moreover, the GI50 in assay [7], in [8], in assay [9], in [10], in [11] and in [12] was > 100 µM (inactive) throughout. Besides, the GI50 in [13] and in assay [14] was > 100 µM (inactive) throughout.

With `COc1ccc2c3c1C(=O)CCCC3CO2` (centres undefined), the GI50 in assay [1] was greater than 100 µM; in assay [2], > 100 µM (inactive); in [3], > 100 µM (inactive); in [4] it was > 100 µM (inactive); in [5], > 100 µM (inactive); in assay [15] it was > 100 µM (inactive). Also, the GI50 in [6], in [7], in [8], in assay [9], in [10] and in assay [11] was > 100 µM (inactive) in each case. For the same compound, the GI50 in [13] and in assay [14] was > 100 µM (inactive) throughout.

Regarding `CC(C)(C)c1cc2nc(c1)C(C(F)(F)F)(C(F)(F)F)OB(Br)OC2(C(F)(F)F)C(F)(F)F`, the GI50 is 0.0299 µM in assay [1]; 0.0434 µM (active) in [2]; 0.0532 µM (active) in [3]; 0.0834 µM (active) in assay [4]; 0.084 µM (active) in [5]; 0.0378 µM (active) in [15]. Moreover, the GI50 was 0.0607 µM (active) in assay [6]; 0.0176 µM (active) in [7]; < 0.01 µM (active) in assay [8]; 1.3 µM (inactive) in assay [10]; 0.173 µM (active) in [11]; 0.0414 µM (active) in [12].

As for `COc1ccc(-c2cc(=O)c3ccc(O)cc3o2)c(OC)c1OC`, the GI50 in [2] is 29.6 µM (inactive); in assay [3], > 10 µM (inactive); in [4], 46.5 µM (inactive); in assay [15] it was 60.7 µM (inactive); in assay [6], 18.9 µM (inactive); in assay [7], 36.2 µM (inactive). Besides, the GI50 in assay [9] was 40.9 µM (inactive); in assay [10] it was 90.6 µM (inactive); in assay [11], 82.8 µM (inactive); in [12], 89.3 µM (inactive); in [14], > 100 µM (inactive).

These data come from ChEMBL document CHEMBL1201862, “PubChem BioAssay data set” (2004).
